What was measured:
[1] = Neuroprotective activity against NGF, arabinosine deficiency and anti NGF antibody-mediated cell death in sympathetic neurons from new born rat superior cervical ganglia assessed as survival rate after 24 hrs by MTT assay relative to control; type: functional, Sympathetic neuron
[2] = Antiinflammatory activity in human Jurkat cells assessed as inhibition of PMA/ionomycine-induced IL2 production preincubated for 30 mins followed by PMA/ionomycine induction measured after 24 hrs by ELISA relative to control; type: functional

Row | SMILES | Survival [1] | inhibition (INH) [2] [%]
1 | N#CC(c1ccnc(NCCCn2ccnc2)n1)c1nc2ccccc2s1 (stereo not given) | <=80% | –
2 | N#CC(c1ccnc(OCc2ccccn2)n1)c1nc2ccccc2s1 (stereo not given) | – | >30
3 | N#CC(c1ccnc(Cl)n1)c1nc2ccccc2s1 (stereo not given) | <=80% | >30
4 | N#CC(c1ccnc(OCc2ccc(Cl)c(Cl)c2)n1)c1nc2ccccc2s1 (stereo not given) | <=80% | –

Source: ChEMBL document CHEMBL3880394, “Benzazole derivatives and their use as jnk modulators” (2003)
